# Source: US20090286799A1, “METHODS FOR THE TREATMENT OF BRAIN EDEMA” (priority 2008, published 2009)
# Experiments:
# [1] = biological target: T1, Recombinant human pro-MMP-9 (Homo sapiens, UniProt P14780); assay: MMP Assay Kit (5-FAM/QXL520 FRET peptide) for MMP-9 bioactivity; format: biochemical; settings: final concentration of PAN-811 1 mM, calcium 0.4 mM, 30 min room temperature
# T1 construct: purchased AnaSpec 72009
# Text: The principle behind this analysis is as follows. A 5-FAM/QXL™520 fluorescence resonance energy transfer (FRET) peptide is used as a substrate for MMP. The fluorescence of 5-FAM is quenched by QXL™520 in intact FRET peptide. However, upon cleavage of FRET into two separate fragments by MMP, in the presence of Ca^2+, the fluorescence of 5-FAM is recovered, and can be monitored at excitation/emission wavelengths of […]/520 nm with a fluorometer. Thus, an inhibitor of MMP-9 could suppress the cleavage of FRET by MMP-9 and decrease the fluorescence intensity of 5-FAM. To test the effect of PAN-811 on the bioactivity of MMP-9, black 96-well plates (Cat #3603, Costar®), Corning Inc.) were pre-warmed at 37° C. 4-aminophenylmercuric acetate (APMA) was diluted 20-fold with assay buffer (both in MMP assay kit) to a final concentration of […]. Recombinant human pro-MMP-9 (10 μg/ml, Cat #72009, AnaSpec, San Jose) was pre-incubated with 1 mM APMA at 37° C. for 2 hours to activate this enzyme. […] Treated wells were incubated at room temperature for 30 min and the fluorescence intensity of 5-FAM was determined for each sample by measurement at excitation/emission wavelengths of 485 nm/520 nm with a fluorometer and reported in RFU (FIGS. 6A and 6B). […]
# [2] = system: Middle Cerebral Artery Occlusion (MCAo) rats; assay: Middle cerebral artery occlusion (MCAo) rat model: infarct volume, edema volume, premature mortality; format: in vivo, male Sprague-Dawley rats
# Procedure: For Middle Cerebral Artery Occlusion (MCAo), male Sprague-Dawley rats (270 to 330 g) were anesthetized with gaseous isoflurane. With aseptic surgical techniques, a laser-Doppler probe was placed on the right temporal-lateral portion of the skull over a region of the cortex which is supplied by the middle cerebral artery to record cerebral blood flow (CBF). CBF was recorded before and after arterial occlusion. The bifurcation of the right external common carotid 8 artery (ECA) and internal common carotid artery (ICA) was surgically exposed. A 4-0 monofilament suture treated with a silicone coating to enlarge the tip to better achieve an arterial block was placed into the ECA stump, and advanced up the ICA approximately 20 mm until a drop in CBF of approximately 75% or greater was measured by laser Doppler flowmetry (PeriFlux PF5010, Perimed). The duration of the ischemia was 120 minutes.
# PAN-811 was originally dissolved to a concentration of 25.6 mmol/L in 7% (v/v) polyethylene glycol (PEG) 300, 3% ethanol (EtOH), 28.6 mmol/L citric acid and 5.7 mmol/L L-ascorbic acid solution. 25.6 mmol/L was the highest concentration of PAN-811 used for dosing. This solution was further diluted with normal saline to produce dosing solutions of 2.56 mmol/L, 5.12 mmol/L, and 10.2 mmol/L on the day of surgery. Vehicle dosing solutions were identical in components to the 5.12 mmol/L PAN-811 group (Vehicle Low), or the 10.2 mmol/L group (Vehicle High). These treatments were delivered intravenously route into MCAo rats at reperfusion time. […]
# After 22 hours of treatment, the animals were sacrificed by CO2 asphyxiation, and their brains sectioned at 2 mm intervals. […] Brain areas were traced and measured using a computerized image analysis system (SimplePCI Version 4.0.0, Compix Inc) to determine infarct volume (in cubic millimeters, mm^3), whereby unstained areas were defined as ischemic lesions of infarcted tissue.
# Ischemic stroke often results in brain edema (Ayata et al., 2002). Therefore, the volumes for both ipsilateral and contralateral side hemispheres of MCAo rats were measured 22 hours later, and the edema volumes (hemisphere volume of the ipsilateral side hemisphere volume of contralateral one) were calculated, and expressed as mean±SEM (FIG. 1B). […]
# Brain edema can result in death of MCAo rats. Therefore, the mortalities for vehicle groups and PAN-811 treated groups, as explained in Examples 1 and 2, were counted (FIG. 1C). Mortalities of general vehicle treated groups (open bar) and collective PAN-811 treated groups (black bar) were determined and premature death rates were expressed as percentage of total animal number in each condition. […]
# T1 sequence (P14780 107-707 limits assumed): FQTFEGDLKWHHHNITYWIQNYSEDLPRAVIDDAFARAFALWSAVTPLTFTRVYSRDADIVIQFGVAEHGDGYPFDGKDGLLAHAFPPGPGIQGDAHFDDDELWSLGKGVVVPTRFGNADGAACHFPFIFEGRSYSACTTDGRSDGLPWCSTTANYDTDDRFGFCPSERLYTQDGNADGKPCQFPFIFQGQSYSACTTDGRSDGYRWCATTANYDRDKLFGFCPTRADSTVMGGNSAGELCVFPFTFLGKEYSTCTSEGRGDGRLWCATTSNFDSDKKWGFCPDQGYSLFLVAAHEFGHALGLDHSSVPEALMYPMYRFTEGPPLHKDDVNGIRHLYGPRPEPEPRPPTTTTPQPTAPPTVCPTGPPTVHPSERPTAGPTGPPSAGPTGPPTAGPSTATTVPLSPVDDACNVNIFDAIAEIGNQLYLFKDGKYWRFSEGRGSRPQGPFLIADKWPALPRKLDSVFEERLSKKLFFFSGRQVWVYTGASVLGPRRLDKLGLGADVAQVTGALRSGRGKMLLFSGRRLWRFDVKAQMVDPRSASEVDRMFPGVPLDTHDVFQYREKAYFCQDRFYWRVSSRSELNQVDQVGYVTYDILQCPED
smiles,measurement,setting,value
"NC(=S)N/N=C/c1ncccc1N [PAN-811, 3-aminopyridine-2-carboxaldehyde thiosemicarbazone]",suppression of pro-MMP-9-catalyzed increase in fluorescence intensity,[1],64%
same,reduction in edema volume,"[2]; 2 mg/kg i.v., compared to the high vehicle group, 22 hours",70%
same,reduction in edema volume,"[2]; 5 mg/kg i.v., compared with High vehicle group, 22 hours (data not shown)",31%
same,premature mortality rate,"[2]; all PAN-811 treated groups (9 of 57), vehicle groups 28%",15.8%
same,reduction of premature mortality,[2]; all PAN-811 treated groups versus the 2 vehicle-treated groups,44%
